Like-named read-outs stand apart in the source and are kept apart here.
System: patients with Wilson disease (WD)
Details: for Transformed CGI-I Mean (SD): scores −3 (Very much improved) to 3 (Very much worse)
Source text: Dose modification, if required, was made as described herein.

Substance: Bis-choline tetrathiomolybdate [BC-TTM]
- UWDRS Part III-speech (0-4) Mean (SD) change from baseline (Week 48): −0.1 (0.53)
- Transformed CGI-I Mean (SD) (Week 48): −0.7 (0.91)
- CGI-S (1 to 7, 1 is normal) LSM (SE) change from baseline (Week 72): −0.5 (0.07)
- CGI-S (1 to 7, 1 is normal) Mean (SD) change from baseline (Week 72): −0.6 (1.10)
- UWDRS Part II (0-40) LSM (SE) change from baseline (Week 72): −1.0 (0.22)
- UWDRS Part II (0-40) Mean (SD) change from baseline (Week 72): −1.2 (2.92)
- UWDRS Part III (0-175) LSM (SE) change from baseline (Week 72): −3.47 (0.672)
- UWDRS Part III (0-175) Mean (SD) change from baseline (Week 72): −3.27 (9.840)
- UWDRS Part III functional subscale (0-10) LSM (SE) change from baseline (Week 72): −0.253 (0.0604)
- UWDRS Part III functional subscale (0-10) Mean (SD) change from baseline (Week 72): −0.290 (0.8908)
- UWDRS Part III-arising from chair (0-4) LSM (SE) change from baseline (Week 72): −0.1 (0.04)
- UWDRS Part III-arising from chair (0-4) Mean (SD) change from baseline (Week 72): −0.1 (0.57)
- UWDRS Part III-gait (0-4) LSM (SE) change from baseline (Week 72): −0.15 (0.110)
- UWDRS Part III-gait (0-4) Mean (SD) change from baseline (Week 72): −0.12 (1.321)
- UWDRS Part III-handwriting (0-4) LSM (SE) change from baseline (Week 72): −0.2 (0.05)
- UWDRS Part III-handwriting (0-4) Mean (SD) change from baseline (Week 72): −0.2 (0.59)
- UWDRS Part III-speech (0-4) LSM (SE) change from baseline (Week 72): −0.1 (0.04)
- UWDRS Part III-speech (0-4) Mean (SD) change from baseline (Week 72): −0.1 (0.51)
- Transformed CGI-I Mean (SD) (Week 72): −0.5 (0.86)
- CGI-S (1 to 7, 1 is normal) LSM (SE) change from baseline (Week 96): −0.5 (0.09)
- CGI-S (1 to 7, 1 is normal) Mean (SD) change from baseline (Week 96): −0.6 (0.97)
- UWDRS Part II (0-40) LSM (SE) change from baseline (Week 96): −1.1 (0.30)
- UWDRS Part II (0-40) Mean (SD) change from baseline (Week 96): −1.1 (3.61)
- UWDRS Part III (0-175) LSM (SE) change from baseline (Week 96): −4.77 (0.865)
- UWDRS Part III (0-175) Mean (SD) change from baseline (Week 96): −4.09 (10.827)
- UWDRS Part III functional subscale (0-10) LSM (SE) change from baseline (Week 96): −0.386 (0.0801)
- UWDRS Part III functional subscale (0-10) Mean (SD) change from baseline (Week 96): −0.503 (0.9648)
- UWDRS Part III-arising from chair (0-4) LSM (SE) change from baseline (Week 96): −0.1 (0.05)
- UWDRS Part III-arising from chair (0-4) Mean (SD) change from baseline (Week 96): −0.2 (0.76)
- UWDRS Part III-gait (0-4) LSM (SE) change from baseline (Week 96): −0.12 (0.143)
- UWDRS Part III-gait (0-4) Mean (SD) change from baseline (Week 96): −0.11 (1.390)
- UWDRS Part III-handwriting (0-4) LSM (SE) change from baseline (Week 96): −0.3 (0.06)
- UWDRS Part III-handwriting (0-4) Mean (SD) change from baseline (Week 96): −0.4 (0.66)
- UWDRS Part III-speech (0-4) LSM (SE) change from baseline (Week 96): −0.2 (0.05)
- UWDRS Part III-speech (0-4) Mean (SD) change from baseline (Week 96): −0.2 (0.57)
- Transformed CGI-I Mean (SD) (Week 96): −0.5 (0.98)
- CGI-S (1 to 7, 1 is normal) LSM (SE) change from baseline (Week 120): −0.7 (0.11)
- CGI-S (1 to 7, 1 is normal) Mean (SD) change from baseline (Week 120): −0.6 (1.06)
- UWDRS Part II (0-40) LSM (SE) change from baseline (Week 120): −1.7 (0.35)
- UWDRS Part II (0-40) Mean (SD) change from baseline (Week 120): −1.4 (3.48)
- UWDRS Part III (0-175) LSM (SE) change from baseline (Week 120): −5.27 (1.016)
- UWDRS Part III (0-175) Mean (SD) change from baseline (Week 120): −4.08 (11.618)
- UWDRS Part III functional subscale (0-10) LSM (SE) change from baseline (Week 120): −0.392 (0.0952)
- UWDRS Part III functional subscale (0-10) Mean (SD) change from baseline (Week 120): −0.410 (1.1867)
- UWDRS Part III-arising from chair (0-4) LSM (SE) change from baseline (Week 120): −0.1 (0.06)
- UWDRS Part III-arising from chair (0-4) Mean (SD) change from baseline (Week 120): −0.2 (0.83)
- UWDRS Part III-gait (0-4) LSM (SE) change from baseline (Week 120): 0.04 (0.172)
- UWDRS Part III-gait (0-4) Mean (SD) change from baseline (Week 120): 0.26 (1.683)
- UWDRS Part III-handwriting (0-4) LSM (SE) change from baseline (Week 120): −0.3 (0.07)
- UWDRS Part III-handwriting (0-4) Mean (SD) change from baseline (Week 120): −0.5 (0.68)
- UWDRS Part III-speech (0-4) LSM (SE) change from baseline (Week 120): −0.2 (0.06)
- UWDRS Part III-speech (0-4) Mean (SD) change from baseline (Week 120): −0.1 (0.61)
- Transformed CGI-I Mean (SD) (Week 120): −0.7 (0.92)
- CGI-S (1 to 7, 1 is normal) LSM (SE) change from baseline (Week 144): −0.6 (0.12)
- CGI-S (1 to 7, 1 is normal) Mean (SD) change from baseline (Week 144): −0.6 (0.78)
- UWDRS Part II (0-40) LSM (SE) change from baseline (Week 144): −2.0 (0.39)
- UWDRS Part II (0-40) Mean (SD) change from baseline (Week 144): −2.0 (4.68)
- UWDRS Part III (0-175) LSM (SE) change from baseline (Week 144): −6.38 (1.112)
- UWDRS Part III (0-175) Mean (SD) change from baseline (Week 144): −5.99 (12.215)
- UWDRS Part III functional subscale (0-10) LSM (SE) change from baseline (Week 144): −0.489 (0.1046)
- UWDRS Part III functional subscale (0-10) Mean (SD) change from baseline (Week 144): −0.573 (1.2617)
- UWDRS Part III-arising from chair (0-4) LSM (SE) change from baseline (Week 144): −0.2 (0.07)
- UWDRS Part III-arising from chair (0-4) Mean (SD) change from baseline (Week 144): −0.3 (1.03)
- UWDRS Part III-gait (0-4) LSM (SE) change from baseline (Week 144): −0.25 (0.186)
- UWDRS Part III-gait (0-4) Mean (SD) change from baseline (Week 144): 0.00 (1.950)
- UWDRS Part III-handwriting (0-4) LSM (SE) change from baseline (Week 144): −0.3 (0.08)
- UWDRS Part III-handwriting (0-4) Mean (SD) change from baseline (Week 144): −0.5 (0.59)
- UWDRS Part III-speech (0-4) LSM (SE) change from baseline (Week 144): −0.3 (0.07)
- UWDRS Part III-speech (0-4) Mean (SD) change from baseline (Week 144): −0.2 (0.59)
- Transformed CGI-I Mean (SD) (Week 144): −0.7 (0.76)
